# The supplement of paper PMC11208160
# Experiment: recombinant UMI read abundance after kanamycin selection (control-corrected) (log10(CPM+1)); higher = more efficient recombination; extreme values may be limits of the assay; sequences stand for … in AGTGCAGAGAAAATCGGCCAGTTTTCTCTGCCTGCAGTCCGCATGCCGTGGGACCCCTTGGGTTCTAACCTGTTGCCTAGATTTATGCAGCGGACTGCCTTTCTCCCAAAGTGATAAACCGG…AGGTTGGTTTCACT; site = the 11-nt donor
# How it was run: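 Under IPTG (0.07 mM) plus kanamycin, or without selection, Escherichia coli carrying a UMI-tagged donor and donor-binding-loop pair library and a target plasmid for the IS621 bridge recombinase were plated in two replicates. Recombinant UMIs were PCR-amplified across the donor–target junction and sequenced. Counts were converted to CPM, averaged over replicates, scaled by control-derived factors and reported as log10(CPM+1).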
# 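Also: IS621 bridge recombinase in Escherichia coli cells against a fixed T5 target plasmid.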
row,Sequence,recombinant UMI read abundance (log10)
1,ACTCGTGCATGGACCGGTTTTCCCGGTAATCCGTATTTGGT (site ACTAGTGCTAC),0.43
2,ACTCGTGCATGGACCGGTTTTCCCGGTAATCCGTATTTGGT (site ACTCGTGCTAC),1.07
3,ACTCGTGCATGGACCGGTTTTCCCGGTAATCCGTATTTGGT (site ACTGGTGCTAC),0.222
4,ACTCGTGCATGGACCGGTTTTCCCGGTAATCCGTATTTGGT (site ACTTGTGCTAC),0.839
5,ACTCTCCCATGGACCGGTTTTCCCGGTAATCCGTATTTGAT (site ACTCTCCCTAT),0.628
6,ACTCTCTCATGGACCGGTTTTCCCGGTAATCCGTATTTGCA (site ACTCTCTCTTG),3.19
7,ACTGATGCATGGACCGGTTTTCCCGGTAATCCGTATTTGGC (site ACTGATGCTGC),1.81
8,ACTGCTACATGGACCGGTTTTCCCGGTAATCCGTATTTGAA (site ACTGCTACTTT),0.749
9,ACTGGTGCATGGACCGGTTTTCCCGGTAATCCGTATTTGGT (site ACTAGTGCTAC),1
10,ACTGGTGCATGGACCGGTTTTCCCGGTAATCCGTATTTGGT (site ACTCGTGCTAC),0.414
11,ACTGGTGCATGGACCGGTTTTCCCGGTAATCCGTATTTGGT (site ACTGGTGCTAC),1.69
12,ACTGGTGCATGGACCGGTTTTCCCGGTAATCCGTATTTGGT (site ACTTGTGCTAC),0.401
13,ACTGTAACATGGACCGGTTTTCCCGGTAATCCGTATTTGCT (site AATGTAACTAG),0.987
14,ACTGTAACATGGACCGGTTTTCCCGGTAATCCGTATTTGCT (site ACTGTAACTAG),2.23
15,ACTGTAACATGGACCGGTTTTCCCGGTAATCCGTATTTGCT (site AGTGTAACTAG),1.12
16,ACTGTAACATGGACCGGTTTTCCCGGTAATCCGTATTTGCT (site ATTGTAACTAG),1.55
17,ACTGTGTCATGGACCGGTTTTCCCGGTAATCCGTATTTGCA (site ACAGTATCTTG),2.5
18,ACTGTGTCATGGACCGGTTTTCCCGGTAATCCGTATTTGCA (site ACTGTGTCTTG),2.89
19,ACTTAACCATGGACCGGTTTTCCCGGTAATCCGTATTTGCA (site ACTTAACCTTG),0

row,Sequence,recombinant UMI read abundance (log10)
1,ACTTAGACATGGACCGGTTTTCCCGGTAATCCGTATTTGGG (site ACATAGACTCC),0.0123
2,ACTTAGACATGGACCGGTTTTCCCGGTAATCCGTATTTGGG (site ACCTAGACTCC),0.00452
3,ACTTAGACATGGACCGGTTTTCCCGGTAATCCGTATTTGGG (site ACGTAGACTCC),0.00655
4,ACTTAGACATGGACCGGTTTTCCCGGTAATCCGTATTTGGG (site ACTTAGACTCC),0.0876
5,ACTTCGTCATGGACCGGTTTTCCCGGTAATCCGTATTTGTG (site ACTTCGTCTCA),0.306
6,ACTTCTACATGGACCGGTTTTCCCGGTAATCCGTATTTGTG (site ACATCTACTCA),0.0153
7,ACTTCTACATGGACCGGTTTTCCCGGTAATCCGTATTTGTG (site ACCTCTACTCA),0.00536
8,ACTTCTACATGGACCGGTTTTCCCGGTAATCCGTATTTGTG (site ACGTCTACTCA),0.0444
9,ACTTCTACATGGACCGGTTTTCCCGGTAATCCGTATTTGTG (site ACTTCTACTCA),0.179
10,ACTTGTGCATGGACCGGTTTTCCCGGTAATCCGTATTTGGT (site ACTAGTGCTAC),0.652
11,ACTTGTGCATGGACCGGTTTTCCCGGTAATCCGTATTTGGT (site ACTCGTGCTAC),0.73
12,ACTTGTGCATGGACCGGTTTTCCCGGTAATCCGTATTTGGT (site ACTGGTGCTAC),0.211
13,ACTTGTGCATGGACCGGTTTTCCCGGTAATCCGTATTTGGT (site ACTTGTGCTAC),1.18
14,ACTTTACCATGGACCGGTTTTCCCGGTAATCCGTATTTGCT (site ACTTTACCTAG),0.431
15,ACTTTATCATGGACCGGTTTTCCCGGTAATCCGTATTTGCA (site ACAGTATCTTG),2.35
16,ACTTTATCATGGACCGGTTTTCCCGGTAATCCGTATTTGCA (site ACTTTATCTTG),1.85
17,AGAAACACATGGACCGGTTTTCCCGGTAATCCGTATTTGTC (site AGAAACACTGA),2.8
18,AGAAAGACATGGACCGGTTTTCCCGGTAATCCGTATTTGCT (site AGAAAGACTAG),2.1
19,AGAAAGACATGGACCGGTTTTCCCGGTAATCCGTATTTGCT (site AGAAAGCCTAG),0.934

row,Sequence,recombinant UMI read abundance (log10)
1,AGAAAGACATGGACCGGTTTTCCCGGTAATCCGTATTTGCT (site AGAAAGGCTAG),1.02
2,AGAAAGACATGGACCGGTTTTCCCGGTAATCCGTATTTGCT (site AGAAAGTCTAG),0.572
3,AGAAAGGCATGGACCGGTTTTCCCGGTAATCCGTATTTGCA (site AGAAAGGCTAG),0
4,AGAAAGGCATGGACCGGTTTTCCCGGTAATCCGTATTTGCA (site AGAAAGGCTCG),0.889
5,AGAAAGGCATGGACCGGTTTTCCCGGTAATCCGTATTTGCA (site AGAAAGGCTGG),0
6,AGAAAGGCATGGACCGGTTTTCCCGGTAATCCGTATTTGCA (site AGAAAGGCTTG),1.9
7,AGAAATGCATGGACCGGTTTTCCCGGTAATCCGTATTTGCT (site AGAAAAGCTAG),1.53
8,AGAAATGCATGGACCGGTTTTCCCGGTAATCCGTATTTGCT (site AGAAACGCTAG),1.8
9,AGAAATGCATGGACCGGTTTTCCCGGTAATCCGTATTTGCT (site AGAAAGGCTAG),0
10,AGAAATGCATGGACCGGTTTTCCCGGTAATCCGTATTTGCT (site AGAAATGCTAG),2.23
11,AGAAATTCATGGACCGGTTTTCCCGGTAATCCGTATTTGCG (site AGAAATTCTCG),1.94
12,AGAACCGCATGGACCGGTTTTCCCGGTAATCCGTATTTGAC (site AGAACCGCTGT),2.35
13,AGAACGGCATGGACCGGTTTTCCCGGTAATCCGTATTTGCG (site AGAACGGCTCG),1.75
14,AGAACTACATGGACCGGTTTTCCCGGTAATCCGTATTTGGG (site AGAACTACTCC),0.434
15,AGAAGCACATGGACCGGTTTTCCCGGTAATCCGTATTTGTC (site AGAAGCACTGA),3.13
16,AGAAGCCCATGGACCGGTTTTCCCGGTAATCCGTATTTGTC (site AGAAGCCCTGA),1.43
17,AGAAGGCCATGGACCGGTTTTCCCGGTAATCCGTATTTGAC (site AAAAGGCCTGT),0
18,AGAAGGCCATGGACCGGTTTTCCCGGTAATCCGTATTTGAC (site ACAAGGCCTGT),0
19,AGAAGGCCATGGACCGGTTTTCCCGGTAATCCGTATTTGAC (site AGAAGGCCTGT),0
